Results on two compounds are retold here after patent publication US10730895B2, “Carbidopa prodrug” (AbbVie Inc., priority 2014, dated 2020).

A short description of data set [1]: Pharmacokinetic study in rats, individual prodrug IV or SC. It counts as in vivo, Sprague-Dawley rats. To be noted: male, Sprague-Dawley, plasma, rat, dose 1.25 mg/kg, L-dopa and carbidopa in aqueous solution, read-out: Carbidopa AUCO-8 h. The method, then: For comparison, a rat pharmacokinetics study with L-dopa and carbidopa was conducted to help assess the in vivo conversion of the prodrugs. The study design and measured exposures of L-dopa and carbidopa are summarized in Tables 16-A and 16-B, respectively. In brief, groups of three male Sprague-Dawley rats were given (1) L-dopa and carbidopa in aqueous solution, or (2) the individual prodrug in aqueuous solution intravenously or subcutaneously. Blood samples were collected at multiple time points over 24 hours into a collection tube containing NaAsO4, EDTA, and ascorbic acid. […] The supernatants were subjected to LC-MS analysis for quantitation of prodrug, L-dopa or carbidopa.

Data set [2] can be described thus: Solubility study in water by visual assessment. It counts as physicochemical. To be noted: thermodynamic from solid, water, ambient. As to the method: The L-dopa phosphate prodrugs and the carbidopa phosphate prodrugs were evaluated in a solubility study. The solubility values of the phosphate prodrugs in water under ambient conditions were determined by visual assessment. Table 13-A reports the results of the study, including the measured values for L-dopa and carbidopa.

The nature of data set [3]: Carbidopa diphosphate pharmacokinetics study in mini-pigs. Format: in vivo. To be noted: minipig, in vivo, sc, 2 mg/kg. The method, then: The in vivo conversion of the carbidopa diphosphate to carbidopa was evaluated in a mini-pig pharmacokinetics study in which the prodrug was administered in aqueous solution subcutaneously to a group of three mini-pigs. For comparison, a pharmacokinetics study with carbidopa also was conducted to help assess the in vivo conversion of the carbidopa prodrugs. The estimated in vivo conversion of the carbidopa diphosphate to carbidopa was approximately 100%, based on the carbidopa exposures.

Data set [4] is described as follows: In vitro bioconversion study, skin homogenates (rat). Format: in vitro ADME.
Experimental: (§1) In brief, the L-dopa and carbidopa phosphate prodrugs (2.5 ug/mL) were incubated with tissue homogenate or fractions from rats, mini-pigs, or human, including blood, skin homogenate (3 mg/mL), liver microsomes (1 mg/mL), liver S9 fraction (1 mg/mL), kidney S9 fraction (1 mg/mL), and intestine S9 fractions (1 mg/mL). The reaction mixtures were incubated at 37° C. for 5 to 6 time points within 1 to 2 hours. At the end of each time point, the reaction mixtures were quenched by 2 to 3 volumes of 5% trichloroacetic acid in water. After quenching, the mixtures were centrifuged at 3000 rpm for 20 minutes, and the supernatants were analyzed by LC-MS for quantitation of the prodrug, L-dopa or carbidopa. The in vitro bioconversion was assessed by monitoring both time-dependent depletion of the prodrug and the formation of the corresponding L-dopa or carbidopa.
Data set [5] is described as follows: In vitro bioconversion study, skin homogenates (human). Format: in vitro ADME.
Experimental: The in vitro bioconversion of the L-dopa phosphate prodrugs to L-dopa and the carbidopa phosphate prodrugs to carbidopa was evaluated in several studies. In brief, the L-dopa and carbidopa phosphate prodrugs (2.5 ug/mL) were incubated with tissue homogenate or fractions from rats, mini-pigs, or human, including blood, skin homogenate (3 mg/mL), liver microsomes (1 mg/mL), liver S9 fraction (1 mg/mL), kidney S9 fraction (1 mg/mL), and intestine S9 fractions (1 mg/mL). The reaction mixtures were incubated at 37° C. for 5 to 6 time points within 1 to 2 hours. At the end of each time point, the reaction mixtures were quenched by 2 to 3 volumes of 5% trichloroacetic acid in water. After quenching, the mixtures were centrifuged at 3000 rpm for 20 minutes, and the supernatants were analyzed by LC-MS for quantitation of the prodrug, L-dopa or carbidopa. The in vitro bioconversion was assessed by monitoring both time-dependent depletion of the prodrug and the formation of the corresponding L-dopa or carbidopa.
The nature of data set [6]: In vitro bioconversion study, blood (human). It counts as in vitro ADME.
Experimental: as §1
Data set [7] is described as follows: In vitro bioconversion study, skin homogenates (mini-pig). Format: in vitro ADME.
Experimental: as §1
A short description of data set [8]: 1-day stability study of individual prodrugs in aqueous solution. It counts as physicochemical. To be noted: aqueous solution 80 μg/mL, ambient storage, pH 6.5. As to the method:
The L-dopa phosphate prodrugs and the carbidopa phosphate prodrugs were evaluated in a stability study.

Data set [9] is described as follows: In vitro bioconversion study, blood (rat). Format: in vitro ADME.
Experimental: as §1
Data set [10] can be described thus: In vitro bioconversion study, blood (mini-pig). Format: in vitro ADME.
Experimental: as §1

As a reminder, the solubility is how much of the substance goes into solution per volume. Lower therefore signals a poorly soluble substance. With `C[C@@](Cc1ccc(O)c(O)c1)(NN)C(=O)O` [Carbidopa, (2S)-3-(3,4-dihydroxyphenyl)-2-hydrazino-2-methylpropanoic acid], the AUC turned out to be 860 ng·h/mL in data set [1] (IV), 685 ng·h/mL in data set [1] (SC) and 1610 ng·h/mL in data set [3]. In addition, the solubility in data set [2] (pH 4-7, crystalline (carbidopa: crystalline monohydrate)) is under 4 mg/mL.

A word on the half-life: it is the time needed for the level to fall by half in the phase considered. Turning to `C[C@@](Cc1ccc(O)c(OP(=O)(O)O)c1)(NN)C(=O)O` [Carbidopa 3′-phosphate, Carbidopa 3′-monophosphate], the “L-Dopa or Carbidopa Formation” value in data set [4] (rat skin homogenate), in data set [5] (human skin homogenate), in data set [6], in data set [7] (mini-pig skin homogenate), in data set [9] and in [10] was “Yes” each time. Also, the half-life at 2.5 ug/mL is 724 min in data set [4] (rat skin homogenate 3 mg/mL, 37° C.); 602 min in data set [5] (human skin homogenate 3 mg/mL, 37° C.); 58 min in data set [6] (prodrug 2.5 ug/mL, 37° C.); 413 min in data set [7] (minipig, mini-pig skin homogenate 3 mg/mL, 37° C.); 20.5 min in data set [9] (prodrug 2.5 ug/mL, 37° C.); 8.9 min in data set [10] (minipig, prodrug 2.5 ug/mL, 37° C.). Moreover, in data set [8], the “% Remaining After One Day” value is over 94%. In [2] (pH 7.1, amorphous), the solubility is over 96 mg/mL.
